These compounds were tested against HEK293 cells with stable expression of the GRIN1 gene and tetracycline-inducible expression of the GRIN2B gene (NMDA receptor, NR2B) (Homo sapiens, UniProt Q13224) (assay: Fluo-8 Ca2+ flux assay: reversal of Ro 25-6981-mediated suppression of the Ca2+ response to co-agonist (glutamate/glycine)). Settings: reversal of the Ro 25-6981 suppression of the Ca2+ response to co-agonist (glutamate/glycine).
Assay type: cell-based
Note: test concentration or dose not given here.

HEK293 cells with stable expression of the GRIN1 gene and tetracycline-inducible expression of the GRIN2B gene (NMDA receptor, NR2B), sequence (Q13224 27-1484, other chains not shown): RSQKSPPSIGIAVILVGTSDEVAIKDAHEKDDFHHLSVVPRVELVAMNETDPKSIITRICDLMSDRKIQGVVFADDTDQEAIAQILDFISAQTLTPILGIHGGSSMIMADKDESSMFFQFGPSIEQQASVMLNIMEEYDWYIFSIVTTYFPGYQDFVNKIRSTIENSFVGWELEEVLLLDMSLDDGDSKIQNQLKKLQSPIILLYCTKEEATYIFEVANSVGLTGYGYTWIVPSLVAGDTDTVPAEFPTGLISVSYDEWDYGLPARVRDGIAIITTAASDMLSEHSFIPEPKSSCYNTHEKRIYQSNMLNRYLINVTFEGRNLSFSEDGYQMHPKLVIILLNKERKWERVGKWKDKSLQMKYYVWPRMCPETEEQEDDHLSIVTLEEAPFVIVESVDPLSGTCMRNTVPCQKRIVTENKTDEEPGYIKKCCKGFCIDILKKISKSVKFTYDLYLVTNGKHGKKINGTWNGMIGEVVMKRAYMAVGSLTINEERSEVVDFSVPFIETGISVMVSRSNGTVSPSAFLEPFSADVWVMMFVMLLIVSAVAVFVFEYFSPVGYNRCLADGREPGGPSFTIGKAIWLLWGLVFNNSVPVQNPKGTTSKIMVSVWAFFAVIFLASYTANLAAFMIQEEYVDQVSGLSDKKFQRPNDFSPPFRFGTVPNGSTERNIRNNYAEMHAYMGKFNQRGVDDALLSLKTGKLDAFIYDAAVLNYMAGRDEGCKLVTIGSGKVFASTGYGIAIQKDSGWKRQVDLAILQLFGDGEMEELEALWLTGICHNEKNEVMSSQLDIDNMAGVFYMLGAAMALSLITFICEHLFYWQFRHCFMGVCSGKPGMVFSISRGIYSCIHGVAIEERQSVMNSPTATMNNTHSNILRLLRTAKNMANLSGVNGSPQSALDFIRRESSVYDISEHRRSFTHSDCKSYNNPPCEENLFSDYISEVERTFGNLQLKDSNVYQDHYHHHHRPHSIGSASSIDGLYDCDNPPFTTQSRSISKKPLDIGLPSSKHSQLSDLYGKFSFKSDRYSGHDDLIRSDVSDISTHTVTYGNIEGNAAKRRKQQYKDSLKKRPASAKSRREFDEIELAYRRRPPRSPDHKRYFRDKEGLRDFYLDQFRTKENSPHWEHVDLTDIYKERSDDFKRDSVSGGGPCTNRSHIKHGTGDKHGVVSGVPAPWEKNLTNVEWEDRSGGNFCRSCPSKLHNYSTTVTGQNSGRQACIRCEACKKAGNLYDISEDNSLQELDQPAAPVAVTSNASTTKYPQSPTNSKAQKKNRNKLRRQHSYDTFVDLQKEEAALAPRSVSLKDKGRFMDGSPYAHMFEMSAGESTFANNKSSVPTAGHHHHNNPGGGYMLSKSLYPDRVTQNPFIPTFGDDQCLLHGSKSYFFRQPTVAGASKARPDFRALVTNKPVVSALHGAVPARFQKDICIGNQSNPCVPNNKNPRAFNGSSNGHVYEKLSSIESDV

Row | Compound | Response Recovered (%)
1 | Cc1cc(-c2nc(C3CC3)n3ccn(CC(=O)N4CC(C)(F)C4)c(=O)c23)ccc1F [Example 442, 3-cyclopropyl-7-(2-(3-fluoro-3-methylazetidin-1-yl)-2-oxoethyl)-1-(4-fluoro-3-methylphenyl)imidazo[1,5-a]pyrazin-8(7H)-one] | 65
2 | O=C(Cn1cnc2[nH]cc(-c3ccc(Cl)c(C(F)(F)F)c3)c2c1=O)N1CCCC1 [Example 148, 5-(4-chloro-3-(trifluoromethyl)phenyl)-3-(2-oxo-2-(pyrrolidin-1-yl)ethyl)-3H-pyrrolo[2,3-d]pyrimidin-4(7H)-one] | 66
3 | O=C(Cn1cnc2c(c(-c3ccc(Cl)c(C(F)(F)F)c3)cn2CCO)c1=O)N1CCCC1 [Example 194, 5-(4-chloro-3-(trifluoromethyl)phenyl)-7-(2-hydroxyethyl)-3-(2-oxo-2-(pyrrolidin-1-yl)ethyl)-3H-pyrrolo[2,3-d]pyrimidin-4(7H)-one] | 2
4 | O=C(Cn1cnc2[nH]cc(-c3cnc(Cl)c(C(F)(F)F)c3)c2c1=O)N1CC(F)(F)C1 [Example 182, 5-(6-chloro-5-(trifluoromethyl)pyridin-3-yl)-3-(2-(3,3-difluoroazetidin-1-yl)-2-oxoethyl)-3H-pyrrolo[2,3-d]pyrimidin-4(7H)-one] | 18
5 | O=C(Cn1cc(-c2ncon2)c2scc(-c3ccc(F)c(C(F)(F)F)c3)c2c1=O)N1CCCC1 [Example 109, 3-(4-fluoro-3-(trifluoromethyl)phenyl)-7-(1,2,4-oxadiazol-3-yl)-5-(2-oxo-2-(pyrrolidin-1-yl)ethyl)thieno[3,2-c]pyridin-4(5H)-one] | 14
6 | CC1(N)CN(C(=O)Cn2ccc3scc(-c4ccc(Cl)c(Cl)c4)c3c2=O)C1 [Example 94, 5-(2-(3-amino-3-methylazetidin-1-yl)-2-oxoethyl)-3-(3,4-dichlorophenyl)thieno[3,2-c]pyridin-4(5H)-one] | 3.1
7 | CC(C)(C)OC(=O)N1CCC12CN(C(=O)Cn1ccc3scc(-c4ccc(F)c(Cl)c4)c3c1=O)C2 [Example 79, tert-butyl 6-(2-(3-(3-chloro-4-fluorophenyl)-4-oxothieno[3,2-c]pyridin-5(4H)-yl)acetyl)-1,6-diazaspiro[3.3]heptane-1-carboxylate] | 18
8 | CC(C)(O)Cn1cc(-c2ccc(F)c(C(F)(F)F)c2)c2c(=O)n(CC(=O)N3CC(F)C(F)C3)ccc21 (stereo not shown) [Example 258, 5-(2-(3,4-difluoropyrrolidin-1-yl)-2-oxoethyl)-3-(4-fluoro-3-(trifluoromethyl)phenyl)-1-(2-hydroxy-2-methylpropyl)-1H-pyrrolo[3,2-c]pyridin-4(5H)-one] | 13
9 | O=C(Cn1ccc2[nH]cc(-c3ccc(F)c(C(F)(F)F)c3)c2c1=O)N1CC(F)C(F)C1 (stereo not shown) [Example 220, 5-(2-(3,4-difluoropyrrolidin-1-yl)-2-oxoethyl)-3-(4-fluoro-3-(trifluoromethyl)phenyl)-1H-pyrrolo[3,2-c]pyridin-4(5H)-one] | 120
10 | O=C(Cn1cnc2csc(-c3ccc(Cl)c(C(F)(F)F)c3)c2c1=O)N1CC(F)(F)C1 [Example 362, 5-(4-chloro-3-(trifluoromethyl)phenyl)-3-(2-(3,3-difluoroazetidin-1-yl)-2-oxoethyl)thieno[3,4-d]pyrimidin-4(3H)-one] | 39
11 | Cc1nc(-c2ccc(F)c(Cl)c2)c2c(=O)n(CC(=O)N3CC(F)(F)C3)ccn12 [Example 430, 1-(3-chloro-4-fluorophenyl)-7-(2-(3,3-dilfuoroazetidin-1-yl)-2-oxoethyl)-3-methylimidazo[1,5-a]pyrazin-8(7H)-one] | 7.3
12 | COCc1cn(CC(=O)N2CCC(F)C2)c(=O)c2c(-c3ccc(Cl)c(Cl)c3)csc12 (stereo not shown) [Example 132, 3-(3,4-dichlorophenyl)-5-(2-(3-fluoropyrrolidin-1-yl)-2-oxoethyl)-7-(methoxymethyl) thieno[3,2-c]pyridin-4(5H)-one] | 20
13 | CCC1(F)CN(C(=O)Cn2ccc3scc(-c4cnc(C#N)c(Cl)c4)c3c2=O)C1 [Example 137, 3-chloro-5-(5-(2-(3-ethyl-3-fluoroazetidin-1-yl)-2-oxoethyl)-4-oxo-4,5-dihydrothieno[3,2-c]pyridin-3-yl)picolinonitrile] | 22
14 | O=C(Cn1ccc2ccc(-c3ccc(Cl)c(Cl)c3)cc2c1=O)N1CCCC1 [Example 316, 7-(3,4-dichlorophenyl)-2-(2-oxo-2-(pyrrolidin-1-yl)ethyl)isoquinolin-1(2H)-one] | 2
15 | Cn1cnc(-n2cc(-c3ccc(F)c(C(F)(F)F)c3)c3c(=O)n(CC(=O)N4CCC(F)C4)ccc32)n1 (stereo not shown) [Example 266, 3-(4-fluoro-3-(trifluoromethyl)phenyl)-5-(2-(3-fluoropyrrolidin-1-yl)-2-oxoethyl)-1-(1-methyl-1H-1,2,4-triazol-3-yl)-1H-pyrrolo[3,2-c]pyridin-4(5H)-one] | 95

Now from value to compound:

Row | Response Recovered (%) | Compound
16 | 25 | Cn1cc(-c2ccc(F)c(Cl)c2)c2c(=O)n(CC(=O)N3CCCC3)cnc21 [Example 159, 5-(3-chloro-4-fluorophenyl)-7-methyl-3-(2-oxo-2-(pyrrolidin-1-yl)ethyl)-3H-pyrrolo[2,3-d]pyrimidin-4(7H)-one]
17 | 9 | O=C(Cn1cnc2cccc(-c3ccc(Cl)cc3)c2c1=O)N1CCCC1F (stereo not shown) [Example 298, 5-(4-chlorophenyl)-3-(2-(2-fluoropyrrolidin-1-yl)-2-oxoethyl)quinazolin-4(3H)-one]
18 | 68 | O=C(Cn1ccc2c(c(-c3ccc(F)c(C(F)(F)F)c3)cn2CO)c1=O)N1CCC(F)C1 (stereo not shown) [Example 260, 3-(4-fluoro-3-(trifluoromethyl)phenyl)-5-(2-(3-fluoropyrrolidin-1-yl)-2-oxoethyl)-1-(hydroxymethyl)-1H-pyrrolo[3,2-c]pyridin-4(5H)-one]
19 | 2 | O=C(Cn1ccc2ccc(-c3ccc(Cl)c(Cl)c3)cc2c1=O)N1CCC(F)C1 (stereo not shown) [Example 315, 7-(3,4-dichlorophenyl)-2-(2-(3-fluoropyrrolidin-1-yl)-2-oxoethyl)isoquinolin-1(2H)-one]
20 | 49 | O=C(Cn1ccn2ccc(-c3ccc(F)c(Cl)c3)c2c1=O)N1CCC(F)C1 (stereo not shown) [Example 393, 8-(3-chloro-4-fluorophenyl)-2-(2-(3-fluoropyrrolidin-1-yl)-2-oxoethyl)pyrrolo[1,2-a]pyrazin-1(2H)-one]
21 | 75 | O=C(Cn1cc(CN2CCCC2)c2scc(-c3ccc(F)c(Cl)c3)c2c1=O)N1CCC(F)C1 (stereo not shown) [Example 119, 3-(3-chloro-4-fluorophenyl)-5-(2-(3-fluoropyrrolidin-1-yl)-2-oxoethyl)-7-(pyrrolidin-1-ylmethyl)thieno[3,2-c]pyridin-4(5H)-one]
22 | 39 | COCn1cc(-c2ccc(F)c(C(F)(F)F)c2)c2c(=O)n(CC(=O)N3CCC(F)C3)cnc21 (stereo not shown) [Example 189, 5-(4-fluoro-3-(trifluoromethyl)phenyl)-3-(2-(3-fluoropyrrolidin-1-yl)-2-oxoethyl)-7-(methoxymethyl)-3H-pyrrolo[2,3-d]pyrimidin-4(7H)-one]
23 | 27 | O=C(Cn1cc(CN2CCC2)c2scc(-c3ccc(Cl)c(Cl)c3)c2c1=O)N1CCC(F)C1 (stereo not shown) [Example 122, 7-(azetidin-1-ylmethyl)-3-(3,4-dichlorophenyl)-5-(2-(3-fluoropyrrolidin-1-yl)-2-oxoethyl)thieno[3,2-c]pyridin-4(5H)-one]
24 | 66 | O=C(Cn1ccc2c(c(-c3ccc(F)c(Cl)c3)cn2C2CC2)c1=O)N1CCC(F)C1 (stereo not shown) [Example 232, 3-(3-chloro-4-fluorophenyl)-1-cyclopropyl-5-(2-(3-fluoropyrrolidin-1-yl)-2-oxoethyl)-1H-pyrrolo[3,2-c]pyridin-4(5H)-one]
25 | 28 | O=C(Cn1ccc2scc(-c3cnc(Cl)c(Cl)c3)c2c1=O)N1CC(F)C(F)C1 (stereo not shown) [Example 35, 3-(5,6-dichloropyridin-3-yl)-5-(2-(3,4-difluoropyrrolidin-1-yl)-2-oxoethyl)thieno[3,2-c]pyridin-4(5H)-one]
26 | 160 | CC1(F)CN(C(=O)Cn2ccc3scc(-c4ccc(F)c(C(F)(F)F)c4)c3c2=O)C1 [Example 43, 3-(4-fluoro-3-(trifluoromethyl)phen-yl)-5-(2-(3-fluoro-3-methylazetidin-1-yl)-2-oxoethyl)thieno[3,2-c]pyridin-4(5H)-one]
27 | 118 | O=C(Cn1ccn2ccc(-c3ccc(F)c(Cl)c3)c2c1=O)N1CCCC1 [Example 392, 8-(3-chloro-4-fluorophenyl)-2-(2-oxo-2-(pyrrolidin-1-yl)ethyl)pyrrolo[1,2-a]pyrazin-1(2H)-one]
28 | 79 | CC1(F)CN(C(=O)Cn2ccn3c(C4CC4)nc(-c4ccc(F)c(C(F)(F)F)c4)c3c2=O)C1 [Example 438, 3-cyclopropyl-1-(4-fluoro-3-(trifluoromethyl)phenyl)-7-(2-(3-fluoro-3-methylazetidin-1-yl)-2-oxoethyl)imidazo[1,5-a]pyrazin-8(7H)-one]
29 | 86 | CC1(F)CN(C(=O)Cn2ccc3[nH]cc(-c4ccc(F)c(C(F)(F)F)c4)c3c2=O)C1 [Example 222, 3-(4-fluoro-3-(trifluoromethyl)phenyl)-5-(2-(3-fluoro-3-methylazetidin-1-yl)-2-oxoethyl)-1H-pyrrolo[3,2-c]pyridin-4(5H)-one]
30 | 54 | O=C(Cn1ccc2scc(-c3ccc(Cl)c(Cl)c3)c2c1=O)N1CC(F)C1 [Example 33, 3-(3,4-dichlorophenyl)-5-(2-(3-fluoroazetidin-1-yl)-2-oxoethyl)thieno[3,2-c]pyridin-4(5H)-one]
31 | 70 | COCn1cc(-c2ccc(Cl)c(Cl)c2)c2c(=O)n(CC(=O)N3CCC(F)C3)ccc21 (stereo not shown) [Example 249, 3-(3,4-dichlorophenyl)-5-(2-(3-fluoropyrrolidin-1-yl)-2-oxoethyl)-1-(methoxymethyl)-1H-pyrrolo[3,2-c]pyridin-4(5H)-one]

Source: US12162890B2 (Novartis AG, priority 2015, dated 2024)
